Numbered stars: 1 amine (or outer) side, 2 acyl side, 3 side chain; on linkers, the order of the positions; unused ones are H or OH. Bridge positions count the residues as written; N and C are the ends. Square brackets hold non-standard residues; d marks the D form. Peptide text beside a SMILES is read from it. * marks the point of attachment. dLeu(3R-OH) = CC(C)[C@@H](O[*:3])[C@@H](N[*:1])C(=O)[*:2]; Gln(3S,4R-Me2) = C[C@H]([C@H](N)C(=O)O)[C@@H](C)C(N)=O; dTyr(βR-OMe) = CO[C@H](c1ccc(O)cc1)[C@@H](N)C(=O)O; Pip(4S-Cl) = O=C(O)[C@@H]1C[C@@H](Cl)CCN1; X6 = CCC(C)/C=C(C)/C=C\C(O)C(C)(O)C(=O)*; Abu(3R-NH2) = C[C@@H](N)[C@H](N)C(=O)O; NMeT = CN[C@H](C(=O)O)[C@@H](C)O
Details: PAMPA

Molecule | passive permeability (in words)
CCC(C)/C=C(C)/C=C\C(O)C(C)(O)C(=O)NCC(=O)N[C@H](C(=O)N[C@H](C(=O)N[C@H](C(=O)N[C@H]1C(=O)N[C@H](COC)C(=O)NCC(=O)N[C@@H](C)C(=O)N(C)[C@@H]([C@@H](C)O)C(=O)N[C@H]([C@H](OC)c2ccc(O)cc2)C(=O)N2CC[C@H](Cl)C[C@H]2C(=O)O[C@@H]1C(C)C)[C@@H](C)[C@@H](C)C(N)=O)[C@@H](C)N)[C@@H](C)O (stereo partly drawn) [mirabamide C] (X6-GT[Abu(3R-NH2)][Gln(3S,4R-Me2)][dLeu(3R-OH)][dS](Me)GA[NMeT][dTyr(βR-OMe)][Pip(4S-Cl)]; ester 5-C) | poor passive permeability
CC[C@@H](C)[C@@H]1NC(=O)CNC(=O)[C@@H](C)N(C)C(=O)[C@H](C(C)C)NC(=O)[C@H]([C@@H](C)O)N(C)C(=O)[C@H](C(C)C)NC(=O)[C@H]([C@@H](C)O)N(C)C(=O)[C@H](C(C)C)NC(=O)CNC(=O)[C@@H](Cc2ccccc2)N(C)C(=O)[C@H](C(C)C)NC(=O)[C@H](CO)NC(=O)[C@H](C(C)C)N(C)C(=O)[C@H](CO)N(C)C1=O [verrucamide B] | poor passive permeability
destruxin A | moderate permeability
destruxin B | moderate permeability
tentoxin | measurable permeability

Same assay, conditions: PAMPA, 16 h

Molecule | logPe
CC(C)[C@H]1C(=O)O[C@H](C(C)C)C(=O)N(C)[C@@H](C(C)C)C(=O)O[C@H](C(C)C)C(=O)N(C)[C@@H](C(C)C)C(=O)O[C@H](C(C)C)C(=O)N1C [Enniatin B] | −4.7
CC[C@H](C)[C@@H]1NC(=O)c2csc(n2)[C@@H](C)NC(=O)[C@H]2N=C(O[C@@H]2C)[C@H](C(C)C)NC(=O)c2csc(n2)[C@@H](Cc2ccccc2)NC(=O)[C@H]2N=C1O[C@@H]2C [Patellamide C] | −4.7
CC(C)[C@H]1C(=O)N(C)[C@@H](C)C(=O)NCCC[C@H](NC(=O)/C=C/C=C/C=O)C(=O)N1C [sclerotiotide F] | below the PAMPA assay’s detection limit
desmethyldestruxin B | −6.67
destruxin B | −5.29
destruxin E2 chlorohydrin | −7.35

Source: paper PMC5186412 (Future medicinal chemistry, 2015)
